# Experimental data taken from US20200352889A1, “CYSTATHIONINE COMPOSITIONS AND METHODS OF TREATMENT FOR HEALTH CONDITIONS” (THE REGENTS OF THE UNIVERSITY OF COLORADO, A BODY CORPORATE, priority 2011, published 2020).
# Columns and labels:
# HepG2 cells = assay: Tunicamycin-induced cell death, LDH release, HepG2 cells; format: cell-based, human; details: data not shown
# Protocol: Cells were seeded in triplicate at ˜75% confluence and pre-treated with either PPG) (5 mM), Cystathionine (1 mM) or with just complete media (DMEM, 10% FBS) as a control. After 24 hr pre-treatment, cells looked normal, with minimal floating cells. Fresh media with 1% FBS was then added to each well, the cells were further treated with Tm (either 5 or 10 ug)/ml. After 18 hr. treatment with Tunicamycin, cells were photographed under phase-contrast with a Zeiss Axiovert 25 microscope for evidence of dead floating cells. Cells from the group treated solely with tunicamycin became strikingly hyper-refringent, detached from the substratum and floated in the media. […] To further evaluate a role for cystathionine in resisting the induction of cell death by tunicamycin, cell lysis was quantified by assaying lactate dehydrogenase (LDH) release. The enzyme activity was determined spectrophotometrically and the amount of enzyme leak was expressed as a percentage of the LDH activity observed in untreated control cells. […]
# (§1) Cells were seeded in triplicate at ˜75% confluence and pre-treated with either PPG) (5 mM), Cystathionine (1 mM) or with just complete media (DMEM, 10% FBS) as a control. […] To further evaluate a role for cystathionine in resisting the induction of cell death by tunicamycin, cell lysis was quantified by assaying lactate dehydrogenase (LDH) release. […]
# a23 cells = assay: Tunicamycin-induced cell death, LDH release, transsulfuration negative a23 cells; format: cell-based, Chinese hamster; details: CBS and CGL negative, p=0.7301
# Text: However, examination of a direct effect of exogenously added cystathionine is not currently possible in a whole animal model because of complications with the compounds solubility and rapid kinetics of its excretion. In order to investigate the direct effects of cystathionine against ER stress-induced cell death, the cytotoxicity of tunicamycin in the human embryonic kidney cell line 293AD and the human hepatoma cell line HepG2 in the presence and absence of both PPG and exogenously added cystathionine was examined. Preliminary experiments confirmed that both of these cell lines express both CBS and CGL (data not shown). In order to investigate the possible protective effects of cystathionine in the absence of transsulfuration, these experiments were repeated with the CBS and CGL negative Chinese hamster fibroblast line a23 (6).
# as §1, with “release. The enzyme activity was determined spectrophotometrically and the amount of enzyme leak was expressed as a percentage of the LDH activity observed in untreated control cells.” for “release.”
# [1] = system: WT mice treated with thapsagargin; assay: Thapsagargin-induced acute tubular necrosis in WT mice in the presence and absence of PPG; format: in vivo, mouse; details: single IP thapsagargin + daily PPG, three days
# Text: (§2) Wild type mice (WT; n=6) to a single sub-lethal intraperitoneal injection of thapsagargin in the presence and absence of the CGL inactivating compound propargylglycine (PPG). WT mice were randomly assigned to one of four treatment groups (n=6 for each group): 1). control, IP injected with PBS (See FIG. 13, Panel A); 2). I.P. injection with PPG (See FIG. 13, Panel B); 3). single I.P […] thapsagargin (See FIG. 13, Panel C); and 4). thapsagargin+PPG (See FIG. 13, Panel D). In groups 2 and 4, PPG treatment was maintained by daily injection until sacrifice at three days post vehicle/thapsagargin injection. After the completion of this treatment regime, all mice were anaesthetized (isoflourane/oxygen) and sacrificed by decapitation.
# as §2, with “(See” for “(See FIG. 13,”, “After the completion of this treatment regime, all mice were anaesthetized (isoflourane/oxygen) and sacrificed by decapitation.” left out
smiles,measurement,setting,value
"C#CCC(N)C(=O)O (racemic) [PPG, D,L-2-amino-4-pentynoic acid]",protection against tunicamycin-induced cell death compared with 293AD cells,HepG2 cells,Essentially identical results
same,cytoprotection against tunicamycin induced cell death,a23 cells,no significant cytoprotection
same,"thapsagargin-induced renal morphological changes (acute tubular necrosis, histology)",[1],completely ablated
